Results reported in patent US5854407A, “15-hydroxy 6,9-hemiacetal erythromycin compounds” (Takeda Chemical Corporation, priority 1992, dated 1998).
Where two headings read alike, the source gives them in different places.

Tests used:
[1] = Metabolite formation and distribution in dogs after i.v. lactobionate of compound (1); format: in vivo; conditions: dog, lactobionate of compound (1) 10 mg/kg, iv
Procedure: (§1) Namely, the present inventors found an active metabolite in vivo which promoted the gastrointestinal motor function (had GMS activity), when compound (1) or (2) of 14-membered ring macrolides having the structural formula shown in Table 1 below were given to the animals. Compound (1) was intravenously given to the dogs, followed by solvent extraction from the livers 30 minutes after administration, chromatography and preparative HPLC to 15 obtain two active metabolites, compounds (3) and (4). The present inventors were able to determine that the chemical structures of these compounds were 15- and 14-hydroxyl derivatives of compound (1), respectively. Compound (2) was treated similarly to obtain corresponding compounds (7) and (8).
(§2) The lactobionate of the compound (1) (10 mg/kg, iv) was injected into the fore-limb of the dog, and the blood, the liver, the bile and the urine were subjected to HP-20 chromatography. After extraction with ethyl acetate, active metabolites were determined. […] The liver was collected 30 minutes after administration, and an extracted concentrated solution thereof was subjected to HP-20 chromatography. The 80% v/v methanol/0.005N HCl fraction was extracted with ethyl acetate, and then, the extract was concentrated to obtain a powder. […]

[2] = tested on: Gastric Motor of Dogs; test: Effect (GMS activity) on gastric motor of dogs (strain gauge force transducer, gastric antrum, i.v.); format: in vivo, dogs (Beagles); conditions: for ED200: dogs; for GMS activity compared with starting compound: compared with the respective starting compounds (1) and (2); for gastrointestinal motor promoting effect: in vivo test of dogs, in words
Text: Effect (GMS activity) on Gastric Motor of Dogs was studied.
Beagles having a body weigh of about 10 kg were subjected to laparotomy under pentobarbital anesthesia, and a strain gauge force transducer was attached to the gastric antrum of each of the beagles. The beagles were used for the experiment more than 2 weeks after the operation. A lead wire of the strain gauge force transducer was connected to a recorder through an amplifier and the recorder records gastric contractions. Signals from the amplifier were supplied to a signal processor (NEC Sanei).
Each of the test compounds was dissolved in ethanol, and lactobionic acid (1 mg/mg of test compound) was added thereto, followed by dilution with physiological saline. The resulting solution was intravenously given 15 minutes after termination of the natural interdigestive migrating contractions.
The area of gastric contractions induced by administration of the test compounds was measured by use of the signal processor. Taking the area at the time that the maximum contraction of the interdigestive migrating contractions was kept for 1 minute as 100%, the dosage inducing a contraction area of 200% (ED200 value) was determined from dosage action curves.
The action (GMS activity) of the above-mentioned compounds on the gastric motor of the dogs was measured.
The measurement was carried out in a manner similar to that of Experimental Example 1.

[3] = tested on: gastrointestinal motor; test: GMS activity of metabolites isolated from dogs; format: in vivo; conditions: metabolites after compound (1), dog 10 mg/kg iv
Procedure: as §1
First, the present inventors examined whether or not metabolites promoting the gastrointestinal motor (having GMS activity) were formed in vivo when the compound (1) or (2), the 6,9-hemiacetal-erythromycin derivative known in the art, was given to the animal.
as §2, with “chromatography.” for “chromatography. The 80% v/v methanol/0.005N HCl fraction was extracted with ethyl acetate, and then, the extract was concentrated to obtain a powder.”

[4] = Physicochemical nature (basicity, fat solubility)
[5] = tested on: gastrointestinal peristaltic movement; conditions: literature; cited from earlier work
[6] = tested on: mice; test: Acute toxicity test using mice (intravenous injection); format: in vivo; conditions: 100 mg/kg
[7] = Canis lupus familiaris, iv, Table 3, dose inducing contraction area of 200%, i.v., as lactobionic acid solution, read-out: ED200
[8] = Canis lupus familiaris, iv, Table 4, Experimental Example 2, similar to Experimental Example 1, read-out: ED200

basicity and fat solubility [4] | SMILES | ED200 [2, 7] [µg/kg] | GMS activity compared with starting compound [2] | gastrointestinal motor promoting effect [2] | also measured
 | CC[C@H]1OC(=O)[C@H](C)[C@@H](O[C@H]2C[C@@](C)(OC)[C@@H](O)[C@H](C)O2)[C@H](C)[C@@H](O[C@@H]2O[C@H](C)C[C@H](N(C)C(C)C)[C@H]2O)[C@@]2(C)CC(C)=C(O2)[C@H](C)[C@@H](O)[C@]1(C)O [Compound (1), reference compound] | 0.9 |  |  | presence in blood, liver, bile and urine [1]: largely present in the blood; ED200 ([2]; Table 4, Experimental Example 2, similar to Experimental Example 1): 0.9 µg/kg
 | CC[C@H]1OC(=O)[C@H](C)[C@@H](O[C@H]2C[C@@](C)(OC)[C@@H](O)[C@H](C)O2)[C@H](C)[C@@H](O[C@@H]2O[C@H](C)C[C@H](N(C)CC)[C@H]2O)[C@@]2(C)CC(C)=C(O2)[C@H](C)[C@@H](O)[C@]1(C)O [Compound (2), reference compound] | 8 |  |  | 
basic fat-soluble properties | CO[C@]1(C)C[C@H](O[C@H]2[C@H](C)[C@@H](O[C@@H]3O[C@H](C)C[C@H](N(C)C(C)C)[C@H]3O)[C@@]3(C)CC(C)=C(O3)[C@H](C)[C@@H](O)[C@](C)(O)[C@@H](CCO)OC(=O)[C@@H]2C)O[C@@H](C)[C@@H]1O [Compound (3), N-demethyl-15-hydroxy-N-isopropyl-8,9-anhydroerythromycin A 6,9-hemiacetal] | 0.5 | stronger GMS activity than the respective starting compounds | strong gastrointestinal motor promoting effect | GMS activity of metabolites / fractions [3]: active
basic fat-soluble properties | CO[C@]1(C)C[C@H](O[C@H]2[C@H](C)[C@@H](O[C@@H]3O[C@H](C)C[C@H](N(C)C(C)C)[C@H]3O)[C@@]3(C)CC(C)=C(O3)[C@H](C)[C@@H](O)[C@](C)(O)[C@@H](C(C)O)OC(=O)[C@@H]2C)O[C@@H](C)[C@@H]1O (stereo partly shown) [Compound (4), N-demethyl-14-hydroxy-N-isopropyl-8,9-anhydorerythromycin A 6,9-hemiacetal] | 0.4 | stronger GMS activity than the respective starting compounds | strong gastrointestinal motor promoting effect | GMS activity of metabolites / fractions [3]: active
 | CC1=C2O[C@](C)(C1)[C@H](O[C@@H]1O[C@H](C)C[C@H](N(C)C(C)C)[C@H]1O)[C@@H](C)[C@H](O[C@H]1C[C@@](C)(O)[C@@H](O)[C@H](C)O1)[C@@H](C)C(=O)O[C@H](C(C)O)[C@@](C)(O)[C@H](O)[C@H]2C (stereo partly shown) [Compound (5), 3'-O-demethyl-N-demethyl-14-hydroxy-N-isopropyl-8,9-anhydroerythromycin A 6,9-hemiacetal] |  | stronger GMS activity than the starting compound (1) |  | ED200 [2, 8]: 0.21 µg/kg
 | CC[C@H]1OC(=O)[C@H](C)[C@@H](O[C@H]2C[C@@](C)(O)[C@@H](O)[C@H](C)O2)[C@H](C)[C@@H](O[C@@H]2O[C@H](C)C[C@H](N(C)C(C)C)[C@H]2O)[C@@]2(C)CC(C)=C(O2)[C@H](C)[C@@H](O)[C@]1(C)O [Compound (6)] |  | stronger GMS activity than the starting compound (1) |  | ED200 [2, 8]: 0.26 µg/kg
basic fat-soluble properties | CCN(C)[C@H]1C[C@@H](C)O[C@@H](O[C@@H]2[C@@H](C)[C@H](O[C@H]3C[C@@](C)(OC)[C@@H](O)[C@H](C)O3)[C@@H](C)C(=O)O[C@H](CCO)[C@@](C)(O)[C@H](O)[C@@H](C)C3=C(C)C[C@@]2(C)O3)[C@@H]1O [Compound (7), N-demethyl-15-hydroxy-N-ethyl-8,9-anhydroerythromycin A 6,9-hemiacetal] | 3.2 | stronger GMS activity than the respective starting compounds | strong gastrointestinal motor promoting effect | 
 | CC[C@H]1OC(=O)[C@H](C)[C@@H](O[C@H]2C[C@@](C)(OC)[C@@H](O)[C@H](C)O2)[C@H](C)[C@@H](O[C@@H]2O[C@H](C)C[C@H](N(C)C)[C@H]2O)[C@](C)(O)C[C@@H](C)C(=O)[C@H](C)[C@@H](O)[C@]1(C)O [ERM A, erythromycin A] |  |  |  | motilin-like action / GMS activity [5]: motilin-like action promoting the gastrointestinal peristaltic movement
 | CCN(C)[C@H]1C[C@@H](C)O[C@@H](O[C@@H]2[C@@H](C)[C@H](O[C@H]3C[C@@](C)(OC)[C@@H](O)[C@H](C)O3)[C@@H](C)C(=O)O[C@H](C(C)O)[C@@](C)(O)[C@H](O)[C@@H](C)C3=C(C)C[C@@]2(C)O3)[C@@H]1O (stereo partly shown) [lactobionate of the compound (8)] |  |  |  | death in acute toxicity test [6]: no case of death was observed

SMILES | basicity and fat solubility [4] | ED200 [2, 7] [µg/kg] | GMS activity compared with starting compound [2] | gastrointestinal motor promoting effect [2] | also measured
CCN(C)[C@H]1C[C@@H](C)O[C@@H](O[C@@H]2[C@@H](C)[C@H](O[C@H]3C[C@@](C)(OC)[C@@H](O)[C@H](C)O3)[C@@H](C)C(=O)O[C@H](C(C)O)[C@@](C)(O)[C@H](O)[C@@H](C)C3=C(C)C[C@@]2(C)O3)[C@@H]1O (stereo partly shown) [Compound (8), N-demethyl-14-hydroxy-N-ethyl-8,9-anhydroerythromycin A 6,9-hemiacetal] | basic fat-soluble properties | 1.8 | stronger GMS activity than the respective starting compounds | strong gastrointestinal motor promoting effect | 
